Assay results as given in patent US20050065194A1, “Methods of treating conditions associated with an Edg-2 receptor” (priority 2003, published 2005).

How the values were obtained:
Edg-4 receptor = molecular target: T1, Edg-4 receptor (Homo sapiens, UniProt Q9HBW0); test: LPA/S1P-stimulated calcium mobilization assay (FLIPR), HTC cells expressing Edg 4; format: cell-based; details: for inhibition of LPA-stimulated calcium increases: FIG. 1 / FIG. 2
T1 construct: expressed in transfected cells; host or cells: HTC (rat hepatoma) cells
T1 sequence (Q9HBW0 whole entry): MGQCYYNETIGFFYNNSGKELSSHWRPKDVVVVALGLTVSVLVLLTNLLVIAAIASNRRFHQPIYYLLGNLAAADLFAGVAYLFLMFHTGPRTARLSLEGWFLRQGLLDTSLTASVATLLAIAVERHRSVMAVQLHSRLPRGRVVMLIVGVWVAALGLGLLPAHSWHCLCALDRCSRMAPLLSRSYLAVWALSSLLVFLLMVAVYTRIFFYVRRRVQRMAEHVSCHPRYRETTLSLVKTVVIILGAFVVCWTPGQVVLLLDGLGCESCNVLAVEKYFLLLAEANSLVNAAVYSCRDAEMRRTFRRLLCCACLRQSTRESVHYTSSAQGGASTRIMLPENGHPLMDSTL

Edg-7 receptor = molecular target: T2, Edg-7 receptor (Homo sapiens, UniProt Q9UBY5); test: LPA/S1P-stimulated calcium mobilization assay (FLIPR), HTC cells expressing Edg 7; format: cell-based; details: for inhibition of LPA-stimulated calcium increases: FIG. 1 / FIG. 2
T2 construct: expressed in transfected cells; host or cells: HTC (rat hepatoma) cells
T2 sequence (Q9UBY5 1-353): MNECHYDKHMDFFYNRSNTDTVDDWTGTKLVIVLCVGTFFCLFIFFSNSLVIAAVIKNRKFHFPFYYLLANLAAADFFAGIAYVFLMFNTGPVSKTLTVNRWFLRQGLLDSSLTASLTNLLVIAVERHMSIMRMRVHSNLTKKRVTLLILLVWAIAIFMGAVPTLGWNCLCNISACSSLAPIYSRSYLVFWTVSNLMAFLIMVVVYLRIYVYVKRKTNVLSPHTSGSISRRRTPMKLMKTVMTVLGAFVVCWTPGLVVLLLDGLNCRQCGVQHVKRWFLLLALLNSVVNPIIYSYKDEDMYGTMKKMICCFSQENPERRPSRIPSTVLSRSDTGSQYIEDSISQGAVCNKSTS

Edg-2 receptor = molecular target: T3, Edg-2 receptor (Homo sapiens, UniProt Q92633); test: LPA/S1P-stimulated calcium mobilization assay (FLIPR), HTC cells expressing Edg 2; format: cell-based; details: for inhibition of the Edg 2 receptor: FIG. 1 / FIG. 2; for IC50: HTC cells expressing Edg 2; for Fold Selective: selectivity for Edg-2 relative to other Edg receptors
T3 construct: expressed in transfected cells
T3 sequence (Q92633 whole entry): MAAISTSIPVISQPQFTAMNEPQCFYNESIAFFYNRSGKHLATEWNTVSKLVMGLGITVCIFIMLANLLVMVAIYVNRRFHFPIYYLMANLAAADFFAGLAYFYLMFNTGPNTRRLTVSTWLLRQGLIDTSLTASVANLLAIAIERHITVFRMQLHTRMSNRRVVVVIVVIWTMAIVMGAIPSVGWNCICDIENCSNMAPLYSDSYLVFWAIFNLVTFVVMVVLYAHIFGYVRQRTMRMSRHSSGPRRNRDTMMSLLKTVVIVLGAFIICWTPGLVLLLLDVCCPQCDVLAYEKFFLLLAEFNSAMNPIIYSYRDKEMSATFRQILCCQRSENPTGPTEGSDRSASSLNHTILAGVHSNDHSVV
From the text: Specific assays for Edg-2 receptor activity are known to those of skill in the art. For example, cells expressing Edg-2 receptors can be contacted with a membrane-permeant calcium sensitive dye such as Fluo-4 AM or a proprietary calcium dye loading kit (e.g., FLIPR Calcium Assay kit, Molecular Devices, Sunnyvale, Calif.). Intracellular calcium is capable of binding to the dye and emitting fluorescent radiation when illuminated at the appropriate wavelength. The cells can thus be illuminated an appropriate wavelength for the dye and any emitting light can be captured by a cooled CCD camera. Changes in fluorescence indicate changes in intracellular calcium resulting from the activation of an Edg-2 receptor. Such changes can be measured advantageously in whole cells in “real-time” (Berridge et al., Nature Reviews 2000, 1:11-21).
LPA receptors such as Edg-2, couple to calcium effector pathways, and result in increases in intracellular calcium following receptor activation (An, 1998, J. Cell. Biochem. Supp., 30-31: 147-157). This biological response lends itself to a very efficient, high-throughput screen using a Fluorescence Imaging Plate Reader (FLIPR; Molecular Devices, Sunnyvale, Calif.). The FLIPR system is a real-time, cell-based assay system with continuous fluorescence detection using a cooled CCD camera. The FLIPR system was used to developing an Edg-2 receptor screen. Rat hepatoma cells stably expressing Edg-2 receptor were plated on 384-well plates and loaded with a calcium dye loading kit (Molecular Devices, Sunnyvale, Calif.) for 1 hour at room temperature. Cells were then placed on the FLIPR^384 (Molecular Devices, Sunnyvale, Calif.) and excited by an argon laser at 488 nm. The data for the entire 384-well plate was updated every second. An integrated robotic pipettor allowed for simultaneous compound addition into each individual well in the plate.

Edg 1 receptor = molecular target: T4, Edg 1 receptor (Homo sapiens, UniProt P21453); test: LPA/S1P-stimulated calcium mobilization assay (FLIPR), HTC cells expressing Edg 1; format: cell-based; details: for inhibition of S1P-stimulated calcium increases: FIG. 1 / FIG. 2
T4 construct: expressed in transfected cells; host or cells: HTC (rat hepatoma) cells
T4 sequence (P21453 whole entry): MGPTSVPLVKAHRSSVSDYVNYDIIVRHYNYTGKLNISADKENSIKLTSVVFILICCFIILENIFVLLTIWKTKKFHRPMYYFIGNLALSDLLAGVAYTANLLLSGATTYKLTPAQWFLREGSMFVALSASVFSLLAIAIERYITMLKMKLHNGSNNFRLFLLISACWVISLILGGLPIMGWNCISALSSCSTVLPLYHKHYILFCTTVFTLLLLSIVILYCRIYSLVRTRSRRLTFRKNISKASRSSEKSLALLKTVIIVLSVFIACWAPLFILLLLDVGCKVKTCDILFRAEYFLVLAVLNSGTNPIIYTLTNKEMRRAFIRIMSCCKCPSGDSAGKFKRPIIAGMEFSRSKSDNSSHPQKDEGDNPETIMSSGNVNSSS

Edg 3 receptor = molecular target: T5, Edg 3 receptor (Homo sapiens, UniProt Q99500); test: LPA/S1P-stimulated calcium mobilization assay (FLIPR), HTC cells expressing Edg 3; format: cell-based; details: for inhibition of S1P-stimulated calcium increases: FIG. 1 / FIG. 2
T5 construct: expressed in transfected cells; host or cells: HTC (rat hepatoma) cells
T5 sequence (Q99500 whole entry): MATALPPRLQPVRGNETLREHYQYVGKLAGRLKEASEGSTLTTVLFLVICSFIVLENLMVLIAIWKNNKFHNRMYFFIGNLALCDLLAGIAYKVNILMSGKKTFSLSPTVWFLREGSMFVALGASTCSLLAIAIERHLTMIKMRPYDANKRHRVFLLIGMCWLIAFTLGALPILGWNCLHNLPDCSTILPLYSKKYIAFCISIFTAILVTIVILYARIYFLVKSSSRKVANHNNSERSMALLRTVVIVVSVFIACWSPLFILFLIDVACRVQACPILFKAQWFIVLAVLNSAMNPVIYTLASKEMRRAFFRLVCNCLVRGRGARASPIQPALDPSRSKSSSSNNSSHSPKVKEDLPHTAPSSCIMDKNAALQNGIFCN

Edg 8 receptor = molecular target: T6, Edg 8 receptor (Homo sapiens, UniProt Q9H228); test: LPA/S1P-stimulated calcium mobilization assay (FLIPR), HTC cells expressing Edg 8; format: cell-based; details: for inhibition of S1P-stimulated calcium increases: FIG. 1 / FIG. 2
T6 construct: expressed in transfected cells; host or cells: HTC (rat hepatoma) cells
T6 sequence (Q9H228 whole entry): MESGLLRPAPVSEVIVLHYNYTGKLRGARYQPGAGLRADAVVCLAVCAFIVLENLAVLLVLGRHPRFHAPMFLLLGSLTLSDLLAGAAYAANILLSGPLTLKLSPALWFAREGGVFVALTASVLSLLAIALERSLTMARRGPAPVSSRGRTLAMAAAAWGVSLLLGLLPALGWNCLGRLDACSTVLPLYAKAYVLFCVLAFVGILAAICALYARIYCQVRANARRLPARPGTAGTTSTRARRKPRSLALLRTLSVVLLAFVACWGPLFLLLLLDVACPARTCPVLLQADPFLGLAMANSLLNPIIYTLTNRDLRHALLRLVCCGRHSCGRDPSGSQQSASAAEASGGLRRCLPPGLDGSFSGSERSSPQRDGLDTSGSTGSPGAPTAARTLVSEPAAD

Adrenergic β = details: significance criteria ≧50% of max stimulation or inhibition; Table 2
Experimental: (§1) In order to test the selectivity of compounds, various radioligand binding assays were performed using numerous non-Edg receptor targets as listed below.
(§2) A radioligand binding assay was performed using adrenergic α1 according to the method of Greengrass and Bremner 1979, Eur. J. Pharmacol. 55:323-326. A radioligand binding assay was performed using adrenergic α2 according to the method of Boyajian and Leslie, 1987, J. Pharmacol. Exp. Ther. 241:1092-1098. A radioligand binding assay was performed using adrenergic β according to the method of Feve et al., 1994, Proc. Natl. Acad. Sci USA 91:5677-5681. A radioligand binding assay was performed using angiotensin AT2 according to the method of Whitebread et al., 1991, Biochem. Biophys. Res. Comm. 181:1365-1371. A radioligand binding assay was performed using calcium channel Type L, dihydropyridine according to the method of Ehlert et al., 1982, Life Sci. 30:2191-2202. A radioligand binding assay was performed using dopamine D2L according to the method of Bunzo et al., 1988, Nature 336:783-787. A radioligand binding assay was performed using endothelin ETA according to the method of Mihara et al., 1994, J. Pharmacol. Exp Ther. 268:1122-1127. A radioligand binding assay was performed using histamine H1 Central according to the method of Hill et al., 1978, J. Neurochem. 31:997-1004. A radioligand binding assay was performed using Muscarinic non-selective, Central according to the method of Luthin and Wolfe, 1984, J. Pharmacol. Exp. Ther. 228:648-655. A radioligand binding assay was performed using serotonin 5-HT1, non-selective according to the method of Middlemiss, 1984, Eur. J. Pharmacol. 101:289-293).

[1] = tested on: Serotonin 5-HT1, non-selective; details: significance criteria ≧50% of max stimulation or inhibition; Table 2
Experimental: as §1, §2

[2] = tested on: Adrenergic α1, non-selective; details: significance criteria ≧50% of max stimulation or inhibition; Table 2
Experimental: as §1, §2

Histamine H1, Central = Histamine H1, Central (Cavia porcellus, UniProt P31389); details: significance criteria ≧50% of max stimulation or inhibition; Table 2
Histamine H1, Central, sequence (P31389 whole entry): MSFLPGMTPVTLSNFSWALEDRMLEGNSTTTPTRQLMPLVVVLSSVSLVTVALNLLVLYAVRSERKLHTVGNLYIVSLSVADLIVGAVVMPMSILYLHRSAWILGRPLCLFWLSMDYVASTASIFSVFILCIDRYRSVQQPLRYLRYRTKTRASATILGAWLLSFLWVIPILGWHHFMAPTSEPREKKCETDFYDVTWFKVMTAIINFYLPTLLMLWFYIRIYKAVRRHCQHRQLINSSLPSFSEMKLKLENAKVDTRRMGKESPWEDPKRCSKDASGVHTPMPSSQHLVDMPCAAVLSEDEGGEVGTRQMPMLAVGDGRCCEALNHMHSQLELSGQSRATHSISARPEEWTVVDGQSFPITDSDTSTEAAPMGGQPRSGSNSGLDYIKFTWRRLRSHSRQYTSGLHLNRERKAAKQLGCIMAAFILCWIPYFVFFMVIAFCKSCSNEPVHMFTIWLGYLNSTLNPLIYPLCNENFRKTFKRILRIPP
Experimental: as §1, §2

Angiotensin AT2 = Angiotensin AT2 (Homo sapiens, UniProt P50052); details: significance criteria ≧50% of max stimulation or inhibition; Table 2
Angiotensin AT2, sequence (P50052 whole entry): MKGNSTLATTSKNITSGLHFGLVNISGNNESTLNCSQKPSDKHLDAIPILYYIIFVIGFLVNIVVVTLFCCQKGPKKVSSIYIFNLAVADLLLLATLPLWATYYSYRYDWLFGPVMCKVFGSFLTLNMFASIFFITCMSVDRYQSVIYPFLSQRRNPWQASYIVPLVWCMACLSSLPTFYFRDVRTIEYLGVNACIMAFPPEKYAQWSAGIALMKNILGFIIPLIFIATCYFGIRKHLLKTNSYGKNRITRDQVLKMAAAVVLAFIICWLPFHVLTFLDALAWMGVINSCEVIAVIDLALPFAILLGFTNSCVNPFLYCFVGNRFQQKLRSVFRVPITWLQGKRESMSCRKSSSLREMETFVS
Experimental: as §1, §2

[3] = tested on: Muscarinic non-selective, Central; details: significance criteria ≧50% of max stimulation or inhibition; Table 2
Experimental: as §1, §2

Endothelin ETA = Endothelin ETA (Homo sapiens, UniProt P25101); details: significance criteria ≧50% of max stimulation or inhibition; Table 2
Endothelin ETA, sequence (P25101 21-427): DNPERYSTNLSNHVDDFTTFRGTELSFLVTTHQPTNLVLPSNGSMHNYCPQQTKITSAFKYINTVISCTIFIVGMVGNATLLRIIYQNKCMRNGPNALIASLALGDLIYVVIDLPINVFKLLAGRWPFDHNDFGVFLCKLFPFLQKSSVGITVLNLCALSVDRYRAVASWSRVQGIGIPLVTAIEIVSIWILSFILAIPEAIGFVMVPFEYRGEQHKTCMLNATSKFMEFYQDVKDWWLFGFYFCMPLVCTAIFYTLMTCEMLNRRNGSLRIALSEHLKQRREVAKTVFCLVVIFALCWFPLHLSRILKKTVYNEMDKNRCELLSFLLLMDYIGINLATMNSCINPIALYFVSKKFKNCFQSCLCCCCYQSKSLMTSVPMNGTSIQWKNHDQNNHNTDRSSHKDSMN
Experimental: as §1, §2

Adrenergic α2 = details: significance criteria ≧50% of max stimulation or inhibition; Table 2
Experimental: as §1, §2

[4] = tested on: Calcium Channel Type L, Dihydropyridine; details: significance criteria ≧50% of max stimulation or inhibition; Table 2
Experimental: as §1, §2

Dopamine D2L = Dopamine D2L (Homo sapiens, UniProt P14416); details: significance criteria ≧50% of max stimulation or inhibition; Table 2
Dopamine D2L, sequence (P14416 whole entry): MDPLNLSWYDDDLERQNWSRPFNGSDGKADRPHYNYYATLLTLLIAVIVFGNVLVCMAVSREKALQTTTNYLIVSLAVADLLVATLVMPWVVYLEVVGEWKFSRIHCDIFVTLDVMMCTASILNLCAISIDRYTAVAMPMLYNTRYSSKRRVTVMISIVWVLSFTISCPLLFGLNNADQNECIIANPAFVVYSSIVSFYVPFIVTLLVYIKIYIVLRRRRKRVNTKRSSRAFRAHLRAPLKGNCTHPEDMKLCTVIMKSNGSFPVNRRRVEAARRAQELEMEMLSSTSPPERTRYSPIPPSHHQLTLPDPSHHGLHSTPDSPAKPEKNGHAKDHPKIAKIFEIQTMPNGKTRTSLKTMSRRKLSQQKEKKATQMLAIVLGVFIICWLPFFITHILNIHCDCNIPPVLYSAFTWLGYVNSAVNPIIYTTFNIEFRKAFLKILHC
Experimental: as §1, §2

[5] = tested on: various targets tested, including other GPCRs, ion channels, and enzymes; test: Pharmacology profiling (selectivity assays), panel of non-Edg targets of Table 2; format: binding; details: all targets listed in Table 2 (bradykinin, CB2, chemokine, dopamine, histamine, muscarinic, NPY, opiate, prostanoid, purinergic, serotonin, sigma, sodium channel, tachykinin, growth factors etc.)
Edg 5 receptor = molecular target: T7, Edg 5 receptor (Homo sapiens, UniProt O95136); test: LPA/S1P-stimulated calcium mobilization assay (FLIPR), HTC cells expressing Edg 5; format: cell-based; details: for inhibition of S1P-stimulated calcium increases: FIG. 1 / FIG. 2
T7 construct: expressed in transfected cells; host or cells: HTC (rat hepatoma) cells
T7 sequence (O95136 whole entry): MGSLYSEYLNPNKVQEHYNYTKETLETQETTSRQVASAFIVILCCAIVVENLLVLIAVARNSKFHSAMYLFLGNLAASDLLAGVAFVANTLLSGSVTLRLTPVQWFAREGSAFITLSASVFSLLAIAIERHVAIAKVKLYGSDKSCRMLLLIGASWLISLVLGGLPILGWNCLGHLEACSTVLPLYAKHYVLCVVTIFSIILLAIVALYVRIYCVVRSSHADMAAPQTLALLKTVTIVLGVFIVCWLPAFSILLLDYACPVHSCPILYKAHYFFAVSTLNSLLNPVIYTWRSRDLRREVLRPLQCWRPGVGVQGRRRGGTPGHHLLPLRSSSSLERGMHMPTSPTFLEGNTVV

[6] = tested on: immortalized ovarian surface epithelial cells; test: LPA-stimulated calcium mobilization in immortalized ovarian surface epithelial cells; format: cell-based; details: 10 μM compound, FIG. 3
[7] = tested on: forskolin-stimulated cAMP production; test: cAMP assay: LPA inhibition of forskolin-stimulated cAMP production; format: cell-based; details: FIG. 4
From the text: Because cAMP acts a second messenger in cell signaling, activating protein kinases that in turn phosphorylate enzymes and transcription factors, cAMP concentration is frequently indicative of the activation state of downstream signaling pathways. For GPCRs like the Edg receptors, coupling via a Gαi pathway results in inhibition of adenylyl cyclase activity, the key enzyme involved in breakdown of ATP and formation of cAMP. Thus, assays can be designed to measure inhibition of adenylyl cyclase activity, by first stimulating cAMP formation. One example of a compound, which stimulates cAMP formation is forskolin. Forskolin bypasses the receptor and directly activates adenylyl cyclase. […]
This assay can be performed by any means known to one of skill in the art. […] Following an incubation period, the cells are lysed and the level of cAMP is determined.
The cAMP assay can be performed by any means known to one of skill in the art, for example, by performing a competitive immunoassay. […] Detection can be performed by any appropriate means, including, but not limited to, using a substrate solution and chemiluminescent readout.
Cells were plated in a 96 well format. […] Following a 30-minute incubation period, the cells were lysed and the level of cAMP was determined. […]
Detection was performed using a substrate solution and chemiluminescent readout. […]

SMILES: CCOc1ccccc1N1C(=O)CC(N(O)c2ccccc2)C1=O (centres unmarked) [Compound 101, 1-(2-Ethoxyphenyl)-3-(hydroxyphenylamino)-pyrrolidine-2,5-dione]
- IC50 (Edg-4 receptor): > 20 µM
- inhibition of LPA-stimulated calcium increases (Edg-4 receptor): did not inhibit
- IC50 (Edg-7 receptor): > 20 µM
- inhibition of LPA-stimulated calcium increases (Edg-7 receptor): did not inhibit
- inhibition of the Edg 2 receptor (Edg-2 receptor): specifically inhibit
- IC50 (Edg-2 receptor): 1.63 µM
- Fold Selective (Edg-2 receptor): >12.3 Fold
- IC50 (Edg 1 receptor): > 20 µM
- inhibition of S1P-stimulated calcium increases (Edg 1 receptor): did not inhibit
- IC50 (Edg 3 receptor): > 20 µM
- inhibition of S1P-stimulated calcium increases (Edg 3 receptor): did not inhibit
- IC50 (Edg 8 receptor): > 20 µM
- inhibition of S1P-stimulated calcium increases (Edg 8 receptor): did not inhibit
- activity in radioligand binding assay, Adrenergic Beta, non-selective (Adrenergic β): no significant activity
- activity in radioligand binding assay, Serotonin 5HT1 non-selective [1]: no significant activity
- activity in radioligand binding assay, Adrenergic Alpha 1, non-selective [2]: no significant activity
- activity in radioligand binding assay, H1 central (Histamine H1, Central): no significant activity
- activity in radioligand binding assay, Angiotensin AT2 (Angiotensin AT2): no significant activity
- activity in radioligand binding assay, Muscarinic, non-selective, central [3]: no significant activity
- activity in radioligand binding assay, Endothelin ETA (Endothelin ETA): no significant activity
- activity in radioligand binding assay, Adrenergic Alpha 2, non-selective (Adrenergic α2): no significant activity
- activity in radioligand binding assay, Calcium Channels Type L, DHP [4]: no significant activity
- activity in radioligand binding assay, Dopamine D2L (Dopamine D2L): no significant activity
- activity at various targets tested, including other GPCRs, ion channels, and enzymes [5]: did not demonstrate any significant activity
- IC50 (Edg 5 receptor): > 20 µM
- inhibition of S1P-stimulated calcium increases (Edg 5 receptor): did not inhibit

SMILES: CCn1nc(C)c(-c2ccccc2O)c1-c1ccccc1 [Compound 103, 2-(1-Ethyl-3-methyl-5-phenyl-1H-pyrazol-4-yl)-phenol]
- IC50 (Edg-4 receptor): > 20 µM
- inhibition of LPA-stimulated calcium increases (Edg-4 receptor): did not inhibit
- IC50 (Edg-7 receptor): > 20 µM
- inhibition of LPA-stimulated calcium increases (Edg-7 receptor): did not inhibit
- inhibition of the Edg 2 receptor (Edg-2 receptor): specifically inhibited
- IC50 (Edg-2 receptor): 0.51 µM
- Fold Selective (Edg-2 receptor): >39.3 Fold
- IC50 (Edg 1 receptor): > 20 µM
- inhibition of S1P-stimulated calcium increases (Edg 1 receptor): did not inhibit
- inhibition of LPA-stimulated calcium mobilization [6]: almost completely inhibited
- IC50 (Edg 3 receptor): > 20 µM
- inhibition of S1P-stimulated calcium increases (Edg 3 receptor): did not inhibit
- IC50 (Edg 8 receptor): > 20 µM
- inhibition of S1P-stimulated calcium increases (Edg 8 receptor): did not inhibit
- activity at various targets tested, including other GPCRs, ion channels, and enzymes [5]: did not demonstrate any significant activity
- reversal of the inhibitory effects of LPA on forskolin-stimulated cAMP production [7]: reverses the inhibitory effects of LPA
- IC50 (Edg 5 receptor): > 20 µM
- inhibition of S1P-stimulated calcium increases (Edg 5 receptor): did not inhibit

SMILES: CCOc1ccccc1N1C(=O)CC(N(O)c2ccc(F)cc2)C1=O (centres unmarked) [Compound 111, 1-(2-Ethoxyphenyl)-3-[(4-fluorophenyl)hydroxylamino]pyrrolidine-2,5-dione]
- melting point: 123 to 124 °C

SMILES: O=C(CC(=O)C(F)(F)F)Nc1cc(-c2ccccc2)n[nH]1 [Compound 201, 4,4,4-trifluoro-3-oxo-N-(5-phenyl-2H-pyrazol-3-yl)-butyramide, reference compound]
- inhibition of LPA-stimulated calcium mobilization [6]: little to no effect
- reversal of the inhibitory effects of LPA on forskolin-stimulated cAMP production [7]: little to no effect
